Reference: patent US12065444B2, “Substituted tetrazolo[1,5-a]pyrazines and tetrazolo[1,5-c]pyrimidines as adenosine receptor antagonists” (Crossignal Therapeutics, Inc., priority 2021, dated 2024)

Assays:
[1] = molecular target: human adenosine A2a receptor (Homo sapiens, UniProt P29274); test: Adenosine A2a receptor whole cell cyclic AMP assay; settings: for inhibition at 10 µM: HEK293, 1 h, read-out: A2a @ 100 μM Adenosine (A2a cAMP IC50)
[2] = molecular target: T1, human adenosine A2b receptor (Homo sapiens, UniProt P29275); test: Adenosine A2b receptor whole cell cyclic AMP assay; settings: for inhibition at 10 µM: HEK293, 1 h, read-out: A2b @ 10 μM Adenosine (A2b cAMP IC50)
T1 sequence (P29275 1-332): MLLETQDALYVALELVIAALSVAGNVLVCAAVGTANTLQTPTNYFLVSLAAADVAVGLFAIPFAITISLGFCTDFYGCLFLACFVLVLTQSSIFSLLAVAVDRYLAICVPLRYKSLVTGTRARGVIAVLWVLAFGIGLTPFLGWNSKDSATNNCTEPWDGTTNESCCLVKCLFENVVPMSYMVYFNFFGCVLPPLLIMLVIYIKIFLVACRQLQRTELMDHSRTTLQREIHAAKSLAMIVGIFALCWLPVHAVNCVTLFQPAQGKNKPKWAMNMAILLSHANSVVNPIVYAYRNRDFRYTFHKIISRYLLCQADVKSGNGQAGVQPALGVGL

[3] = A2a @ 1 μM Adenosine (A2a cAMP IC50), HEK293 cells stably expressing human A2a, 1 μM adenosine, 1 hour compound treatment
[4] = A2a @ 100 μM Adenosine (A2a cAMP IC50), HEK293 cells stably expressing human A2a, 100 μM adenosine, 1 hour compound treatment

Chain of human adenosine A2a receptor (P29274 whole entry): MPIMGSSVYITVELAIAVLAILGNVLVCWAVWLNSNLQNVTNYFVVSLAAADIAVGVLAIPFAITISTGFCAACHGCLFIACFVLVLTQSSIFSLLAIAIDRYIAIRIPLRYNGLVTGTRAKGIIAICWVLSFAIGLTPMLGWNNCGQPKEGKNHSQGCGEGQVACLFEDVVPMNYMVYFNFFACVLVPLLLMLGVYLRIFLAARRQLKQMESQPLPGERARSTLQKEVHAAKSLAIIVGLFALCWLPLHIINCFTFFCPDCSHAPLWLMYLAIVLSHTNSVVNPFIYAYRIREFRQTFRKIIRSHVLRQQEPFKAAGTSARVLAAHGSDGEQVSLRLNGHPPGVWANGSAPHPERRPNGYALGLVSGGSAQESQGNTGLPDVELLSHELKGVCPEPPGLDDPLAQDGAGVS

Cc1ccnc2ccc(-c3c(-c4ccc(F)cc4)nc(N)c4nnnn34)cc12 [1-6, 6-(4-fluorophenyl)-5-(4-methylquinolin-6-yl)tetrazolo[1,5-a]pyrazin-8-amine]
IC50 [1, 3]: < 100 nM | inhibition at 10 µM [2]: < 25%

Cc1cnc2ccc(-c3c(-c4ccc(F)cc4)nc(N)c4nnnn34)cn12 [1-7, 6-(4-fluorophenyl)-5-(3-methylimidazo[1,2-a]pyridin-6-yl)tetrazolo[1,5-a]pyrazin-8-amine]
IC50 [1, 3]: < 100 nM | IC50 [1, 4]: 100 to 1000 nM | IC50 [2]: 100 to 1000 nM

Cn1cnc2ccc(-c3c(-c4ccc(F)cc4)nc(N)c4nnnn34)cc21 [1-13, 6-(4-fluorophenyl)-5-(1-methyl-1H-benzo[d]imidazol-6-yl)tetrazolo[1,5-a]pyrazin-8-amine]
IC50 [1, 3]: < 100 nM | IC50 [1, 4]: 100 to 1000 nM | IC50 [2]: 100 to 1000 nM

Nc1nc(-c2ccc(F)cc2)c(-c2ccc3ncc(CO)n3c2)n2nnnc12 [1-20, (6-(8-amino-6-(4-fluorophenyl)tetrazolo[1,5-a]pyrazin-5-yl)imidazo[1,2-a]pyridin-3-yl)methanol]
IC50 [1, 3]: < 100 nM | IC50 [1, 4]: > 1000 nM | IC50 [2]: 100 to 1000 nM

Cc1cnc2ccc(-c3c(-c4ccc(F)cc4)nc(N)n4nnnc34)cn12 [1-25, 7-(4-fluorophenyl)-8-(3-methylimidazo[1,2-a]pyridin-6-yl)tetrazolo[1,5-c]pyrimidin-5-amine]
IC50 [1, 3]: < 100 nM | IC50 [1, 4]: 100 to 1000 nM | IC50 [2]: 100 to 1000 nM

Nc1nc(-c2ccc(F)cc2)c(-c2cc(Cl)nc(C(F)(F)F)c2)c2nnnn12 [1-34, 8-(2-chloro-6-(trifluoromethyl)pyridin-4-yl)-7-(4-fluorophenyl)tetrazolo[1,5-c]pyrimidin-5-amine]
IC50 [1, 3]: 100 to 1000 nM | IC50 [1, 4]: > 1000 nM | inhibition at 10 µM [2]: < 25%

Cc1ccnc2ccc(-c3c(-c4ccc(F)cc4)nc(N)n4nnnc34)cc12 [1-36, 7-(4-fluorophenyl)-8-(4-methylquinolin-6-yl)tetrazolo[1,5-c]pyrimidin-5-amine]
IC50 [1, 3]: < 100 nM | IC50 [2]: 100 to 1000 nM

COc1ccc(-c2nc(N)c3nnnn3c2-c2ccc3nccc(C)c3c2)cc1 [1-38, 6-(4-methoxyphenyl)-5-(4-methylquinolin-6-yl)tetrazolo[1,5-a]pyrazin-8-amine]
IC50 [1, 3]: 100 to 1000 nM | inhibition at 10 µM [2]: < 25%

Cc1ccnc2ccc(-c3c(-c4ccc(F)cc4F)nc(N)c4nnnn34)cc12 [1-43, 6-(2,4-difluorophenyl)-5-(4-methylquinolin-6-yl)tetrazolo[1,5-a]pyrazin-8-amine]
IC50 [1, 3]: < 100 nM | inhibition at 10 µM [1]: < 25% | inhibition at 10 µM [2]: < 25%

Nc1nc(-c2ccc(F)cc2)c(-c2ccc3ncc(C(F)F)n3c2)n2nnnc12 [1-48, 5-(3-(difluoromethyl)imidazo[1,2-a]pyridin-6-yl)-6-(4-fluorophenyl)tetrazolo[1,5-a]pyrazin-8-amine]
IC50 [1, 3]: 100 to 1000 nM | IC50 [1, 4]: 100 to 1000 nM | IC50 [2]: 100 to 1000 nM

Nc1nc(-c2ccc(F)cc2)c(-c2cc(Cl)nc(C(F)(F)F)c2)n2nnnc12 [1-55, 5-(2-chloro-6-(trifluoromethyl)pyridin-4-yl)-6-(4-fluorophenyl)tetrazolo[1,5-a]pyrazin-8-amine]
IC50 [1, 3]: 100 to 1000 nM | inhibition at 10 µM [1]: < 25%

COc1ccc(-c2nc(N)c3nnnn3c2-c2ccc3ncc(C)n3c2)cc1 [1-56, 6-(4-methoxyphenyl)-5-(3-methylimidazo[1,2-a]pyridin-6-yl)tetrazolo[1,5-a]pyrazin-8-amine]
IC50 [1, 3]: 100 to 1000 nM | IC50 [1, 4]: > 1000 nM

COc1ccc(-c2nc(N)n3nnnc3c2-c2ccc3ncc(C)n3c2)cc1 [1-57, 7-(4-methoxyphenyl)-8-(3-methylimidazo[1,2-a]pyridin-6-yl)tetrazolo[1,5-c]pyrimidin-5-amine]
IC50 [1, 3]: 100 to 1000 nM | IC50 [1, 4]: > 1000 nM | IC50 [2]: 100 to 1000 nM

Cc1cc(-c2c(-c3ccc(F)cc3)nc(N)n3nnnc23)cc(C(F)F)n1 [1-58, 8-(2-(difluoromethyl)-6-methylpyridin-4-yl)-7-(4-fluorophenyl)tetrazolo[1,5-c]pyrimidin-5-amine]
IC50 [1, 3]: 100 to 1000 nM | IC50 [1, 4]: > 1000 nM

COc1ccc(-c2nc(N)n3nnnc3c2-c2cc(Cl)nc(C(F)(F)F)c2)cc1 [1-59, 8-(2-chloro-6-(trifluoromethyl)pyridin-4-yl)-7-(4-methoxyphenyl)tetrazolo[1,5-c]pyrimidin-5-amine]
IC50 [1, 3]: 100 to 1000 nM | IC50 [1, 4]: > 1000 nM

Cc1c(C#N)cccc1-c1cc(-c2cn(Cc3cccc(C(C)(C)O)n3)nn2)nc(N)n1 [AB928, reference compound]
IC50 [1, 3]: 100 to 1000 nM | IC50 [1, 4]: > 1000 nM | IC50 [2]: > 1000 nM

Cc1ccc(-c2nc(N)nc3c2nnn3Cc2cccc(CO[C@H]3CCOC3)n2)o1 [CPI-444, reference compound]
A2a @ 100 μM Adenosine (A2a cAMP IC50) ([1]; HEK293 cells stably expressing human A2a, 100 μM adenosine, 1 hour compound treatment, 10 µM): NR (“NR” indicates A2a or A2b mean inhibition is <25% at the top concentration) | inhibition at 10 µM [2]: < 25%
